Test results: PubChem BioAssay (NCI)
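A five-concentration, 48-hour dose response in 96-well plates underlies each endpoint, interpolated linearly between surrounding concentrations. Abbreviation: GI50, concentration required for 50% inhibition of growth. TGI denotes the concentration required for complete inhibition of growth.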

Assays:
Experiment in all cases: growth of human tumour cells (NCI), 48 h
[1] = test system: LOX IMVI melanoma
[2] = test system: OVCAR-4 ovarian
[3] = test system: OVCAR-8 ovarian
[4] = test system: OVCAR-5 ovarian
[5] = test system: A498 renal
[6] = test system: BT-549 breast
[7] = test system: OVCAR-3 ovarian
[8] = test system: EKVX NSCLC
[9] = test system: UO-31 renal
[10] = test system: SN12C renal

Row | SMILES | GI50 [1] | TGI [1] | GI50 [2] | TGI [2] | GI50 [3] | TGI [3] | GI50 [4] | TGI [4] | GI50 [5] | TGI [5] | GI50 [6] | TGI [6] | GI50 [7] | TGI [7] | GI50 [8] | TGI [8] | GI50 [9] | TGI [9] | GI50 [10] | TGI [10]
1 | CCN(CC)c1ccc2nc3c4ccccc4c(=NC(=O)c4ccccc4-c4c5ccc(N(CC)CC)cc5[o+]c5cc(N(CC)CC)ccc45)cc-3oc2c1 | 1.69 µM | 4.49 µM | 1.25 µM | 2.67 µM | 2.23 µM | 12.2 µM | 3.23 µM | 11.9 µM | 6.15 µM | 23.5 µM | 14 µM | 30.8 µM | 0.85 µM | 6.26 µM | 3.52 µM | > 32.6 µM | 1.49 µM | 15 µM | 2.13 µM | 6.14 µM
2 | CCOc1cc(/C=N\NC(=O)N/N=C/c2ccc(O)c(OCC)c2)ccc1O | 2.45 µM | > 100 µM | 54.3 µM | > 100 µM | 4.26 µM | > 100 µM | 59.3 µM | > 100 µM | 5.68 µM | 61.3 µM | 24.5 µM | > 100 µM | 0.308 µM | 1.08 µM | 4.38 µM | > 100 µM | 8.47 µM | > 100 µM | 7 µM | > 100 µM
3 | COc1cnc2c(c1)C(=O)c1c-2n(CCCN2CCN(CCO)CC2)c(=O)c2cc([N+](=O)[O-])ccc12 | 1.08 µM | 2.51 µM | 1.79 µM | 4.42 µM | 1.39 µM | 5.03 µM | 19.5 µM | 37.2 µM | 0.794 µM | 19.7 µM | 2.9 µM | 18.9 µM | 1.46 µM | 3.12 µM | 1.8 µM | 4.23 µM | 3.32 µM | 20.8 µM |  | 
4 | CNCCOc1nc2c3cnccc3cc(-c3cc(OC)c(OC)c(OC)c3)c2c2ccncc12 | 0.0131 µM | 0.0944 µM | 0.161 µM | 0.749 µM | 0.0418 µM | 0.466 µM | 0.0403 µM | 0.426 µM | 0.0478 µM | 0.163 µM | 0.103 µM | 0.613 µM | 0.0906 µM | 0.464 µM | 0.0782 µM | 0.432 µM | 0.0302 µM | 0.156 µM | 0.0199 µM | 0.0872 µM
5 | CC(C)N(C[C@H]1O[C@@H](n2cnc3c(N)ncnc32)[C@H](O)[C@@H]1O)C1CC(CCc2nc3ccc(C(C)(C)C)cc3[nH]2)C1 (stereo not given in full) | > 71.5 µM | > 100 µM | 74.1 µM | > 100 µM | > 100 µM | > 100 µM | > 46.9 µM | > 100 µM | 29.6 µM | > 100 µM | > 60.5 µM | > 100 µM | > 100 µM | > 100 µM |  |  | > 100 µM | > 100 µM | > 100 µM | > 100 µM
6 | CN(C)CCOc1nc2ccccc2c2c1-c1ccc(Cl)cc1C2=O | 0.416 µM | 1.78 µM | 0.927 µM | 4.04 µM | 0.386 µM | 2.22 µM | 1.27 µM |  | 1.19 µM | 2.87 µM | 2.01 µM | 4.59 µM | 0.622 µM | 1.85 µM | 2.06 µM | 6.85 µM | 0.222 µM | 1.27 µM | 0.389 µM | 2.36 µM
